Target: cAMP and cAMP-inhibited cGMP 3',5'-cyclic phosphodiesterase 10A (Homo sapiens, UniProt Q9Y233)
Assay: Phosphodiersterase Evaluation Assay: IMAP TR-FRET Phosphodiersterase Evaluation Assay Kit (Molecular Device) was used for the measurement. Ten μL of a diluted test compound having each concentration and 5 μL of the enzyme PDE10 (BPA Bioscience) that had been diluted to 2 ng/mL with 1×IMAP Reaction Buffer (prepared with 5×included with the kit, 10 mM Tris-HCl, pH=7.2, 10 mM MgCl2, 0.05% NaN3, and 0.1% BSA) containing 0.1% BSA were added to a 384-well plate (Corning). The obtained mixture was then pre-incubated at room temperature for 5 minutes. Thereafter, 5 μL of cAMP substrate solution which was included with the kit and diluted to 400 nM with 1×IMAP Reaction Buffer containing 0.1% BSA, was added to the reaction solution, and the obtained mixture was reacted at room temperature for 60 minutes. Thereafter, 60 μL of an IMAP TR-FRET Binding solution included with the kit was further added to the reaction solution, and the obtained mixture was then left for 3 hours or more. Subsequently, using ARVO SX (PerkinElmer), the fluorescent intensity of Terbium (Emission=490 nm) and TR-FRET (Emission=520 nm) in the reaction solution were measured at an excitation wavelength of 340 nm, so as to calculate the amount of the generated 5′-AMP. […]

Chain of cAMP and cAMP-inhibited cGMP 3',5'-cyclic phosphodiesterase 10A (Q9Y233 whole entry): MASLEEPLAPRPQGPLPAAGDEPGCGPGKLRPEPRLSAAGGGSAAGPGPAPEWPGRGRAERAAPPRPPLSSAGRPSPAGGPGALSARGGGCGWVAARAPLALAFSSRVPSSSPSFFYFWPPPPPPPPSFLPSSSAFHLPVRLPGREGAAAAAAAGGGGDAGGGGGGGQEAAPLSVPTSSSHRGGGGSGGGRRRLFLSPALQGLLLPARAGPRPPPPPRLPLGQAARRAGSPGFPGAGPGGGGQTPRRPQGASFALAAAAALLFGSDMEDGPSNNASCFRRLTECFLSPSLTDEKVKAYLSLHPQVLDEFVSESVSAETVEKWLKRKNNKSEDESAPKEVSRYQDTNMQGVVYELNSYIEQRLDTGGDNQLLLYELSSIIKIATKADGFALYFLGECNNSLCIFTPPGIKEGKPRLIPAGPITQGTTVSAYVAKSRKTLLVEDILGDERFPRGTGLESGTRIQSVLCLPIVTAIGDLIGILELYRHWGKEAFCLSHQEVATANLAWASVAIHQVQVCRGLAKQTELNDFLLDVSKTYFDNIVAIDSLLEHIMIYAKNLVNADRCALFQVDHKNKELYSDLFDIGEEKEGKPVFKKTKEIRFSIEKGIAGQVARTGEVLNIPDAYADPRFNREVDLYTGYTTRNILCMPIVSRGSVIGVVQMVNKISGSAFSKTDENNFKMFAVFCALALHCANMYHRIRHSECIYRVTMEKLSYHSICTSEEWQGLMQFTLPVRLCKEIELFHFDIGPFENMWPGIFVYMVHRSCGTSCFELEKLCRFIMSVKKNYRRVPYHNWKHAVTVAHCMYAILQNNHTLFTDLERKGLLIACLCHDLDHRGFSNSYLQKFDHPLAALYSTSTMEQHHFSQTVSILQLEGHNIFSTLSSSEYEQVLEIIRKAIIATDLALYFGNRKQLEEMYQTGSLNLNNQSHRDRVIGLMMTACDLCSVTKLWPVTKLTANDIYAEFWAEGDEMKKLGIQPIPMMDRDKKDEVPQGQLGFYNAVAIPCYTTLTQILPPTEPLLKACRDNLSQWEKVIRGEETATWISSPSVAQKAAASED

IC50: < 5 nM
SMILES: Cc1cccc(-c2cnn(C)c2C(=O)Nc2cc3nc(N4CCC[C@@H]4C(F)(F)F)nn3cc2F)n1

From ChEMBL document CHEMBL5726444, “Pyrazole derivative” (2017)
